Results reported in the supplement of paper PMC13207355.

Columns and labels:
Details in all cases: exposure time: 72 h
[1] = test system: FT3469 (normal neural stem cell line); assay: surviving fraction (nuclei count normalised to DMSO); higher = more cells surviving (less toxic)
[2] = test system: E13 (patient-derived glioblastoma stem cells of classical subtype); assay: as above
[3] = test system: E57 (patient-derived glioblastoma stem cells of mesenchymal subtype); assay: as above
[4] = test system: E34 (patient-derived glioblastoma stem cells of proneural subtype); assay: as above
[5] = test system: E31 (patient-derived glioblastoma stem cells of proneural subtype); assay: as above
[6] = test system: E28 (patient-derived glioblastoma stem cells of classical subtype); assay: as above
[7] = test system: E21 (patient-derived glioblastoma stem cells of mesenchymal subtype); assay: as above
[8] = test system: FT3469; assay: phenotypic distance (Euclidean, principal components) from DMSO controls (arbitrary units); higher = stronger morphological change
[9] = test system: E13; assay: as above
[10] = test system: E57; assay: as above
[11] = test system: E34; assay: as above
[12] = test system: E31; assay: as above
[13] = test system: E28; assay: as above
[14] = test system: E21; assay: as above
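Wherever phenotypic distance (Euclidean, principal components) from DMSO controls is given: cell Painting imaging in 384-well plates, CellProfiler features reduced to at least 20 principal components, Euclidean distance versus same-plate DMSO vehicle wells (0.1% v/v), median over six images per well.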
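Wherever surviving fraction (nuclei count normalised to DMSO) is given: nuclei counted by high-content imaging of Hoechst-stained cells in laminin-coated 384-well plates, relative to 0.1% DMSO vehicle wells, with staurosporine as cell-death control.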

For `Nc1ncn(C2OC(CO)C(O)C2O)c(=O)n1` (stereo unspecified) [Azacytidine-5], the surviving fraction ([1]; 4.1 nM) was 0.953, the surviving fraction ([1]; 12.3 nM) was 1 and the surviving fraction ([1]; 37 nM) was 1.1. The surviving fraction ([1]; 111.1 nM) was 0.935, the surviving fraction ([1]; 333.3 nM) was 0.809 and the surviving fraction ([1]; 1000 nM) was 1.04. For the same compound, the surviving fraction ([1]; 3000 nM) was 0.906, the surviving fraction ([2]; 4.1 nM) was 0.948 and the surviving fraction ([2]; 12.3 nM) was 0.902. It also gave a surviving fraction ([2]; 37 nM) of 0.957, a surviving fraction ([2]; 111.1 nM) of 1 and a surviving fraction ([2]; 333.3 nM) of 1.01. The surviving fraction ([2]; 1000 nM) was 0.894, the surviving fraction ([2]; 3000 nM) was 0.634 and the surviving fraction ([3]; 4.1 nM) was 0.979. The surviving fraction ([3]; 12.3 nM) was 1.09, the surviving fraction ([3]; 37 nM) was 0.948 and the surviving fraction ([3]; 111.1 nM) was 0.974. For the same compound, the surviving fraction ([3]; 333.3 nM) was 0.859, the surviving fraction ([3]; 1000 nM) was 0.702 and the surviving fraction ([3]; 3000 nM) was 0.411. The surviving fraction ([4]; 4.1 nM) was 0.935, the surviving fraction ([4]; 12.3 nM) was 0.979 and the surviving fraction ([4]; 37 nM) was 0.89. The surviving fraction ([4]; 111.1 nM) was 1.09, the surviving fraction ([4]; 333.3 nM) was 1.04 and the surviving fraction ([4]; 1000 nM) was 0.914. For the same compound, the surviving fraction ([4]; 3000 nM) was 0.858, the surviving fraction ([5]; 4.1 nM) was 0.962 and the surviving fraction ([5]; 12.3 nM) was 0.827. The surviving fraction ([5]; 37 nM) was 0.96, the surviving fraction ([5]; 111.1 nM) was 0.986 and the surviving fraction ([5]; 333.3 nM) was 1.04. It also gave a surviving fraction ([5]; 1000 nM) of 0.731, a surviving fraction ([5]; 3000 nM) of 0.439 and a surviving fraction ([6]; 4.1 nM) of 0.969. For the same compound, the surviving fraction ([6]; 12.3 nM) was 1.09, the surviving fraction ([6]; 37 nM) was 0.969 and the surviving fraction ([6]; 111.1 nM) was 1.1. The surviving fraction ([6]; 333.3 nM) was 0.952, the surviving fraction ([6]; 1000 nM) was 1.15 and the surviving fraction ([6]; 3000 nM) was 0.764. It also gave a surviving fraction ([7]; 4.1 nM) of 0.945, a surviving fraction ([7]; 12.3 nM) of 0.932 and a surviving fraction ([7]; 37 nM) of 1.07. It also gave a surviving fraction ([7]; 111.1 nM) of 0.892, a surviving fraction ([7]; 333.3 nM) of 0.978 and a surviving fraction ([7]; 1000 nM) of 0.779. For the same compound, the surviving fraction ([7]; 3000 nM) was 0.634, the phenotypic distance ([8]; 4.1 nM) was 0.816 and the phenotypic distance ([8]; 12.3 nM) was 0.612. The phenotypic distance ([8]; 37 nM) was 0.486, the phenotypic distance ([8]; 111.1 nM) was 1.17 and the phenotypic distance ([8]; 333.3 nM) was 0.757. The phenotypic distance ([8]; 1000 nM) was 0.865, the phenotypic distance ([8]; 3000 nM) was 1.77 and the phenotypic distance ([9]; 4.1 nM) was 0.774. For the same compound, the phenotypic distance ([9]; 12.3 nM) was 0.925, the phenotypic distance ([9]; 37 nM) was 0.631 and the phenotypic distance ([9]; 111.1 nM) was 1.16. For the same compound, the phenotypic distance ([9]; 333.3 nM) was 1.01, the phenotypic distance ([9]; 1000 nM) was 2.56 and the phenotypic distance ([9]; 3000 nM) was 4.39. The phenotypic distance ([10]; 4.1 nM) was 0.265, the phenotypic distance ([10]; 12.3 nM) was 1.15 and the phenotypic distance ([10]; 37 nM) was 0.6. The phenotypic distance ([10]; 111.1 nM) was 0.593, the phenotypic distance ([10]; 333.3 nM) was 1.38 and the phenotypic distance ([10]; 1000 nM) was 2.03. It also gave a phenotypic distance ([10]; 3000 nM) of 3.86, a phenotypic distance ([11]; 4.1 nM) of 0.787 and a phenotypic distance ([11]; 12.3 nM) of 0.546. It also gave a phenotypic distance ([11]; 37 nM) of 0.387, a phenotypic distance ([11]; 111.1 nM) of 0.835 and a phenotypic distance ([11]; 333.3 nM) of 0.732. It also gave a phenotypic distance ([11]; 1000 nM) of 0.672, a phenotypic distance ([11]; 3000 nM) of 1.24 and a phenotypic distance ([12]; 4.1 nM) of 0.548. It also gave a phenotypic distance ([12]; 12.3 nM) of 0.901, a phenotypic distance ([12]; 37 nM) of 0.564 and a phenotypic distance ([12]; 111.1 nM) of 0.874. For the same compound, the phenotypic distance ([12]; 333.3 nM) was 1.27, the phenotypic distance ([12]; 1000 nM) was 1.11 and the phenotypic distance ([12]; 3000 nM) was 2.48. It also gave a phenotypic distance ([13]; 4.1 nM) of 0.577, a phenotypic distance ([13]; 12.3 nM) of 0.65 and a phenotypic distance ([13]; 37 nM) of 0.956. For the same compound, the phenotypic distance ([13]; 111.1 nM) was 0.825, the phenotypic distance ([13]; 333.3 nM) was 3.86 and the phenotypic distance ([13]; 1000 nM) was 0.76. It also gave a phenotypic distance ([13]; 3000 nM) of 1.01, a phenotypic distance ([14]; 4.1 nM) of 1.45 and a phenotypic distance ([14]; 12.3 nM) of 0.512. It also gave a phenotypic distance ([14]; 37 nM) of 0.843, a phenotypic distance ([14]; 111.1 nM) of 1.36 and a phenotypic distance ([14]; 333.3 nM) of 1.28. It also gave a phenotypic distance ([14]; 1000 nM) of 1.92 and a phenotypic distance ([14]; 3000 nM) of 2.82.

`Nc1nc2n[nH]nc2c(=O)[nH]1` [Azaguanine-8] showed a surviving fraction ([1]; 4.1 nM) of 0.958, a surviving fraction ([1]; 12.3 nM) of 1.15 and a surviving fraction ([1]; 37 nM) of 1.2. It also gave a surviving fraction ([1]; 111.1 nM) of 0.987, a surviving fraction ([1]; 333.3 nM) of 0.881 and a surviving fraction ([1]; 1000 nM) of 0.685. It also gave a surviving fraction ([1]; 3000 nM) of 0.59, a surviving fraction ([2]; 4.1 nM) of 0.918 and a surviving fraction ([2]; 12.3 nM) of 1.02. For the same compound, the surviving fraction ([2]; 37 nM) was 1.08, the surviving fraction ([2]; 111.1 nM) was 0.87 and the surviving fraction ([2]; 333.3 nM) was 0.559. The surviving fraction ([2]; 1000 nM) was 0.581, the surviving fraction ([2]; 3000 nM) was 0.307 and the surviving fraction ([3]; 4.1 nM) was 1. It also gave a surviving fraction ([3]; 12.3 nM) of 0.873, a surviving fraction ([3]; 37 nM) of 0.831 and a surviving fraction ([3]; 111.1 nM) of 0.605. It also gave a surviving fraction ([3]; 333.3 nM) of 0.459, a surviving fraction ([3]; 1000 nM) of 0.271 and a surviving fraction ([3]; 3000 nM) of 0.22. The surviving fraction ([4]; 4.1 nM) was 0.988, the surviving fraction ([4]; 12.3 nM) was 0.839 and the surviving fraction ([4]; 37 nM) was 0.913. For the same compound, the surviving fraction ([4]; 111.1 nM) was 0.939, the surviving fraction ([4]; 333.3 nM) was 0.795 and the surviving fraction ([4]; 1000 nM) was 0.601. The surviving fraction ([4]; 3000 nM) was 0.563, the surviving fraction ([5]; 4.1 nM) was 0.825 and the surviving fraction ([5]; 12.3 nM) was 0.941. For the same compound, the surviving fraction ([5]; 37 nM) was 1.07, the surviving fraction ([5]; 111.1 nM) was 0.654 and the surviving fraction ([5]; 333.3 nM) was 0.48. For the same compound, the surviving fraction ([5]; 1000 nM) was 0.225, the surviving fraction ([5]; 3000 nM) was 0.0814 and the surviving fraction ([6]; 4.1 nM) was 1.08. It also gave a surviving fraction ([6]; 12.3 nM) of 1.11, a surviving fraction ([6]; 37 nM) of 1.14 and a surviving fraction ([6]; 111.1 nM) of 0.882. The surviving fraction ([6]; 333.3 nM) was 0.664, the surviving fraction ([6]; 1000 nM) was 0.574 and the surviving fraction ([6]; 3000 nM) was 0.292. For the same compound, the surviving fraction ([7]; 4.1 nM) was 0.917, the surviving fraction ([7]; 12.3 nM) was 1.06 and the surviving fraction ([7]; 37 nM) was 0.788. It also gave a surviving fraction ([7]; 111.1 nM) of 0.68, a surviving fraction ([7]; 333.3 nM) of 0.489 and a surviving fraction ([7]; 1000 nM) of 0.429. The surviving fraction ([7]; 3000 nM) was 0.296, the phenotypic distance ([8]; 4.1 nM) was 0.821 and the phenotypic distance ([8]; 12.3 nM) was 1.13. The phenotypic distance ([8]; 37 nM) was 0.941, the phenotypic distance ([8]; 111.1 nM) was 1.28 and the phenotypic distance ([8]; 333.3 nM) was 1.37. It also gave a phenotypic distance ([8]; 1000 nM) of 1.95, a phenotypic distance ([8]; 3000 nM) of 2.95 and a phenotypic distance ([9]; 4.1 nM) of 0.737. The phenotypic distance ([9]; 12.3 nM) was 0.508, the phenotypic distance ([9]; 37 nM) was 1.23 and the phenotypic distance ([9]; 111.1 nM) was 0.95. For the same compound, the phenotypic distance ([9]; 333.3 nM) was 2.46, the phenotypic distance ([9]; 1000 nM) was 2.82 and the phenotypic distance ([9]; 3000 nM) was 5.02. For the same compound, the phenotypic distance ([10]; 4.1 nM) was 0.712, the phenotypic distance ([10]; 12.3 nM) was 0.801 and the phenotypic distance ([10]; 37 nM) was 1.2. For the same compound, the phenotypic distance ([10]; 111.1 nM) was 1.96, the phenotypic distance ([10]; 333.3 nM) was 3.18 and the phenotypic distance ([10]; 1000 nM) was 5.55. The phenotypic distance ([10]; 3000 nM) was 6.09, the phenotypic distance ([11]; 4.1 nM) was 0.455 and the phenotypic distance ([11]; 12.3 nM) was 0.707. For the same compound, the phenotypic distance ([11]; 37 nM) was 0.662, the phenotypic distance ([11]; 111.1 nM) was 0.809 and the phenotypic distance ([11]; 333.3 nM) was 1.12. It also gave a phenotypic distance ([11]; 1000 nM) of 2.2, a phenotypic distance ([11]; 3000 nM) of 3.18 and a phenotypic distance ([12]; 4.1 nM) of 1.03. It also gave a phenotypic distance ([12]; 12.3 nM) of 0.622, a phenotypic distance ([12]; 37 nM) of 0.999 and a phenotypic distance ([12]; 111.1 nM) of 1.08. The phenotypic distance ([12]; 333.3 nM) was 1.4, the phenotypic distance ([12]; 1000 nM) was 2.35 and the phenotypic distance ([12]; 3000 nM) was 5.2. The phenotypic distance ([13]; 4.1 nM) was 0.671, the phenotypic distance ([13]; 12.3 nM) was 0.89 and the phenotypic distance ([13]; 37 nM) was 1. The phenotypic distance ([13]; 111.1 nM) was 0.848, the phenotypic distance ([13]; 333.3 nM) was 1.21 and the phenotypic distance ([13]; 1000 nM) was 1.81. The phenotypic distance ([13]; 3000 nM) was 3.73, the phenotypic distance ([14]; 4.1 nM) was 0.646 and the phenotypic distance ([14]; 12.3 nM) was 1.28. For the same compound, the phenotypic distance ([14]; 37 nM) was 1.04, the phenotypic distance ([14]; 111.1 nM) was 1.87 and the phenotypic distance ([14]; 333.3 nM) was 3.3. For the same compound, the phenotypic distance ([14]; 1000 nM) was 4.9 and the phenotypic distance ([14]; 3000 nM) was 7.15.
